Data on one compound can be found in patent US20230101312A1, “SOS1 INHIBITORS” (Mirati Therapeutics, Inc., priority 2020, published 2023).

The test system of the assay is MKN1 cells or H358. The assay is described as follows: pERK inhibition in-cell western. The class given is cell-based. As to conditions: MKN1 or H358 cells (cell line not given), 1 hour with compound, GAPDH normalized. Here is the method: This Example illustrates that exemplary compounds of the present invention prevent KRas-mediated GTP nucleotide exchange mediated by SOS1 to inhibit KRas activity thereby inhibiting the generation of the downstream effector pERK. MKN1 cells (15,000/w) or H358 (30,000/w) were seeded in a black clear flat bottom 96-well cell culture plate (Corning, #3904) and incubated at 37° C. overnight. Assay day 1, cells were dosed with compounds of Formula (I) with a 10 μm starting concentration and serially diluted 3× for a total of 9 concentrations. The cells were incubated for 1 hour with the compounds solubilized in DMSO at 37° C. Cells were immediately fixed by adding 50 μL of 4% formaldehyde to all wells in a fume hood and the plates were incubated for 20 minutes at room temperature. The formaldehyde was discarded from the plates and 150 μL of ice-cold methanol was added to permeabilize the cells for 10 minutes at −20° C. The methanol was discarded from each of the plates and any liquid remaining in the plate by tapping the plate against paper towels. Cells were then blocked with 150 μL of Odyssey blocking buffer (LI-COR Biosciences #927-50010) using 0.05% Tween for 1 hour at room temperature on a shaker. […] The IC50 values were then calculated with the Graph pad Prism software.

Consider `CNCc1ccccc1-c1csc([C@@H](C)Nc2ncc(C#N)c3cc(OC)c(OC)cc23)c1` [Example 1-1, (R)-6,7-dimethoxy-1-((1-(4-(2-((methylamino)methyl)phenyl)thiophen-2-yl)ethyl)amino)isoquinoline-4-carbonitrile], for which the IC50 (in general, the concentration at which inhibition is half-maximal) was determined as 2050 nM.
